Assay results published in patent US11426397B2, “Piperidinyl- and piperazinyl-substituted heteroaromatic carboxamides as modulators of GPR6” (TAKEDA PHARMACEUTICAL COMPANY LIMITED, priority 2017, dated 2022).

Molecular target: T1, GPR6 receptor expressed in CHO-K1 cells (Homo sapiens, UniProt P46095)
T1 construct: expressed in transfected cells
Experiment: In vitro inhibition of cAMP (EC50), cell-based HTRF cAMP assay
Settings: inhibition of constitutive cAMP activity of GPR6 in CHO-K1 cells
Outline: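 Cellular cAMP measured by Lance Ultra HTRF (Eu-cAMP tracer, ULight anti-cAMP), with EC50 fitted by four-parameter logistic. Test compounds sat on cells 45 min, 37 °C, in pH 7.4 Ringer's with 300 μM IBMX and 0.5% BSA; GPR6 in CHO-K1 induced beforehand by doxycycline, 2 μg/mL, 20 h.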

T1 sequence (P46095 whole entry): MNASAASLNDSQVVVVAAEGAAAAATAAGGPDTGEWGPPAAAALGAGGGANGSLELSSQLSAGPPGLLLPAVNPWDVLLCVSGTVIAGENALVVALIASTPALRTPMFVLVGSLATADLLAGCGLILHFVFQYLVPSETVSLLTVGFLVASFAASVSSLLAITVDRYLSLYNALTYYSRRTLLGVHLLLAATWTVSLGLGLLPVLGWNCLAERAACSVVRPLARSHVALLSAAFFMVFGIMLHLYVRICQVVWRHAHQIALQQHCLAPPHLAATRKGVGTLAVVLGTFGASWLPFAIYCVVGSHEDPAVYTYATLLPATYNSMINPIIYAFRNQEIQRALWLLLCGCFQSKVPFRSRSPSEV

Structure (SMILES) | pEC50, in vitro inhibition of cAMP
N#Cc1ccc(N2CCC(Oc3ccc(F)cc3F)CC2)c(NC(=O)c2cccc3c2OCC3)c1 [Example 27, N-(5-cyano-2-(4-(2,4-difluorophenoxy)piperidin-1-yl)phenyl)-2,3-dihydrobenzofuran-7-carboxamide] | 7.4
N#Cc1ccc(N2CCC(Oc3ccc(F)cc3F)CC2)c(NC(=O)c2ccon2)c1 [Example 117, N-(5-cyano-2-(4-(2,4-difluorophenoxy)piperidin-1-yl)phenyl)isoxazole-3-carboxamide] | 6.3
COc1ncccc1C(=O)Nc1cc(C#N)ccc1N1CCC(C(=O)c2ccccc2)CC1 [Example 70, N-(2-(4-benzoylpiperidin-1-yl)-5-cyanophenyl)-2-methoxynicotinamide] | 6.4
COc1ccnc(C(=O)Nc2cc(C#N)ccc2N2CCC(Oc3ccc(F)cc3F)CC2)c1 [Example 109, N-(5-cyano-2-(4-(2,4-difluorophenoxy)piperidin-1-yl)phenyl)-4-methoxypicolinamide] | 6.7
COc1ncccc1C(=O)Nc1cc(C#N)ccc1N1CCN(Cc2cccs2)CC1 [Example 72, N-(5-cyano-2-(4-(thiophen-2-ylmethyl)piperazin-1-yl)phenyl)-2-methoxynicotinamide] | 6.6
Cc1ccc(F)c(C(=O)Nc2cc(C#N)cnc2N2CCC(Oc3ccc(F)cc3F)CC2)n1 [Example 57, N-(5-cyano-2-(4-(2,4-difluorophenoxy)piperidin-1-yl)pyridin-3-yl)-3-fluoro-6-methylpicolinamide] | 7.3
COc1c(C(=O)Nc2ccc(C)nc2N2CCN(Cc3ccc(F)cc3)CC2)cnn1C [Example 103, N-(2-(4-(4-fluorobenzyl)piperazin-1-yl)-6-methylpyridin-3-yl)-5-methoxy-1-methyl-1H-pyrazole-4-carboxamide] | 6.5
CCn1ncc(C(=O)Nc2cc(C#N)cnc2N2CCC(Oc3ccc(F)cc3F)CC2)c1OC [Example 120, N-(5-cyano-2-(4-(2,4-difluorophenoxy)piperidin-1-yl)pyridin-3-yl)-1-ethyl-5-methoxy-1H-pyrazole-4-carboxamide] | 7.4
COc1ncccc1C(=O)Nc1cc(C#N)ccc1N1CCN(Cc2c(F)cccc2Cl)CC1 [Example 71] | 6.5
COc1ncccc1C(=O)Nc1cnc(C)cc1N1CCC(Oc2ccc(C#N)cc2F)CC1 [Example 40, N-(4-(4-(4-cyano-2-fluorophenoxy)piperidin-1-yl)-6-methylpyridin-3-yl)-2-methoxynicotinamide] | 6.2
COc1ncccc1C(=O)Nc1cc(CNC(C)=O)cnc1N1CCC(Oc2ccc(F)cc2F)CC1 [Example 64, N-(5-(acetamidomethyl)-2-(4-(2,4-difluorophenoxy)piperidin-1-yl)pyridin-3-yl)-2-methoxynicotinamide] | 7.0
Cn1ccnc1C(=O)Nc1cc(C#N)ccc1N1CCC(Oc2ccc(F)cc2F)CC1 [Example 50, N-(5-cyano-2-(4-(2,4-difluorophenoxy)piperidin-1-yl)phenyl)-1-methyl-1H-imidazole-2-carboxamide] | 6.2
CCOc1c(C(=O)Nc2cc(C#N)cnc2N2CCC(Oc3ccc(F)cc3F)CC2)cnn1C [Example 121, N-(5-cyano-2-(4-(2,4-difluorophenoxy)piperidin-1-yl)pyridin-3-yl)-5-ethoxy-1-methyl-1H-pyrazole-4-carboxamide] | 6.7
COc1cccc(F)c1C(=O)Nc1cc(S(C)(=O)=O)ccc1N1CCC(Oc2ccc(F)cc2F)CC1 [Example 11] | 6.7
Cn1cccc(C(=O)Nc2cc(C#N)ccc2N2CCC(C(F)c3cc(F)ccc3F)CC2)c1=O (centres unmarked) [Example 87] | 7.2
COc1nc(C)ccc1C(=O)Nc1cnc(C)nc1N1CCC(Oc2ccc(F)cc2F)CC1 [Example 74, N-(4-(4-(2,4-difluorophenoxy)piperidin-1-yl)-2-methylpyrimidin-5-yl)-2-methoxy-6-methylnicotinamide] | 7.1
Cn1cccc(C(=O)Nc2cc(C#N)ccc2N2CCC([C@H](F)c3ccc(F)cc3F)CC2)c1=O [Example 84, (S)—N-(5-cyano-2-(4-((2,4-difluorophenyl)fluoromethyl)piperidin-1-yl)phenyl)-1-methyl-2-oxo-1,2-dihydropyridine-3-carboxamide] | 6.6
COc1ccsc1C(=O)Nc1cc(C#N)ccc1N1CCC(Oc2ccc(F)cc2F)CC1 [Example 46, N-(5-cyano-2-(4-(2,4-difluorophenoxy)piperidin-1-yl)phenyl)-3-methoxythiophene-2-carboxamide] | 7.2
COc1ccncc1C(=O)Nc1ccc(C#N)cc1N1CCC(Oc2ccc(F)cc2F)CC1 [Example 92, N-(4-cyano-2-(4-(2,4-difluorophenoxy)piperidin-1-yl)phenyl)-4-methoxynicotinamide] | 7.3
COc1ncccc1C(=O)Nc1cc(C#N)ccc1N1CCC(C(OC)c2ccc(F)cc2)CC1 (centres unmarked) [Example 96, N-(5-cyano-2-(4-((4-fluorophenyl)(methoxy)methyl)piperidin-1-yl)phenyl)-2-methoxynicotinamide] | 6.5

Further lines, results first:

pEC50, in vitro inhibition of cAMP | Structure (SMILES)
6.5 | COc1cc(F)c(F)cc1CN1CCN(c2ncc(C#N)cc2NC(=O)c2cn(C)nc2OC)CC1 [Example 170, N-(5-cyano-2-(4-(4,5-difluoro-2-methoxybenzyl)piperazin-1-yl)pyridin-3-yl)-3-methoxy-1-methyl-1H-pyrazole-4-carboxamide]
6.6 | COc1nn(C)cc1C(=O)Nc1cc(C#N)cnc1N1CCN(Cc2ccc(OC(F)F)cc2)CC1 [Example 162, N-(5-cyano-2-(4-(4-(difluoromethoxy)benzyl)piperazin-1-yl)pyridin-3-yl)-3-methoxy-1-methyl-1H-pyrazole-4-carboxamide]
6.8 | Cc1cc(C(=O)Nc2cc(C#N)ccc2N2CCC(Oc3ccc(F)cc3F)CC2)nc(C)n1 [Example 135, N-(5-cyano-2-(4-(2,4-difluorophenoxy)piperidin-1-yl)phenyl)-2,6-dimethylpyrimidine-4-carboxamide]
6.7 | COc1c(C(=O)Nc2ccc(C#N)nc2N2CCC(Oc3ccc(F)cc3F)CC2)cnn1C [Example 256, N-(6-cyano-2-(4-(2,4-difluorophenoxy)piperidin-1-yl)pyridin-3-yl)-5-methoxy-1-methyl-H-pyrazole-4-carboxamide]
6.4 | COc1c(C)cccc1C(=O)Nc1cc(C#N)ccc1N1CCC(Oc2ccc(F)cc2F)CC1 [Example 232, N-(5-cyano-2-(4-(2,4-difluorophenoxy)piperidin-1-yl)phenyl)-2-methoxy-3-methylbenzamide]
7.0 | N#Cc1ccc(N2CCC(Oc3ccc(F)cc3F)CC2)c(NC(=O)c2ccc[nH]c2=O)c1 [Example 274]
<4.5 | COc1c(Cl)cc(Cl)cc1C(=O)Nc1cc(C#N)ccc1N1CCC(Oc2ccc(F)cc2F)CC1 [Example 234, 3,5-dichloro-N-(5-cyano-2-(4-(2,4-difluorophenoxy)piperidin-1-yl)phenyl)-2-methoxybenzamide]
6.3 | COc1ccc(OC(F)(F)F)cc1C(=O)Nc1cc(C#N)ccc1N1CCC(Oc2ccc(F)cc2F)CC1 [Example 231, N-(5-cyano-2-(4-(2,4-difluorophenoxy)piperidin-1-yl)phenyl)-2-methoxy-5-(trifluoromethoxy)benzamide]
6.3 | COc1cc(C(F)(F)F)ccc1C(=O)Nc1cc(C#N)ccc1N1CCC(Oc2ccc(F)cc2F)CC1 [Example 194, N-(5-cyano-2-(4-(2,4-difluorophenoxy)piperidin-1-yl)phenyl)-2-methoxy-4-(trifluoromethyl)benzamide]
7.1 | Cc1nc(C(=O)Nc2cc(C#N)ccc2N2CCC(Oc3ccc(F)cc3F)CC2)ccc1F [Example 137, N-(5-cyano-2-(4-(2,4-difluorophenoxy)piperidin-1-yl)phenyl)-5-fluoro-6-methylpicolinamide]
6.5 | Cc1cnc(C(=O)Nc2cc(C#N)ccc2N2CCC(Oc3ccc(F)cc3F)CC2)cn1 [Example 123, N-(5-cyano-2-(4-(2,4-difluorophenoxy)piperidin-1-yl)phenyl)-5-methylpyrazine-2-carboxamide]
7.2 | CCCNC(=O)c1cc(N2CCC(Oc3ccc(F)cc3F)CC2)c(NC(=O)c2cccnc2OC)cn1 [Example 254, 4-(4-(2,4-difluorophenoxy)piperidin-1-yl)-5-(2-methoxynicotinamido)-N-propylpicolinamide]
6.3 | COc1cn(-c2ccccc2)nc1C(=O)Nc1cc(C#N)ccc1N1CCC(Oc2ccc(F)cc2F)CC1 [Example 219, N-(5-cyano-2-(4-(2,4-difluorophenoxy)piperidin-1-yl)phenyl)-4-methoxy-1-phenyl-1H-pyrazole-3-carboxamide]
6.8 | Cc1csc2ncc(C(=O)Nc3cc(C#N)ccc3N3CCC(Oc4ccc(F)cc4F)CC3)c(=O)n12 [Example 218, N-(5-cyano-2-(4-(2,4-difluorophenoxy)piperidin-1-yl)phenyl)-3-methyl-5-oxo-5H-thiazolo[3,2-a]pyrimidine-6-carboxamide]
6.4 | COc1ncccc1C(=O)Nc1cc(C#N)ccc1N1CCN(Cc2c(F)cccc2F)CC1 [Example 249]
